5 molecules from patent US20060008891A1, “Cathepsin G-related peptides as modulators of formylpeptide receptors (FPR)” (The Government of USA as repersented by the Secretary, …, priority 2004, published 2006) can be followed below.

Entries after “also recorded” stand apart in the source; their conditions may differ.

The target in assay [1] is T1, FPR (Homo sapiens, UniProt P21462).
T1 construct: expressed in transfected cells; host or cells: Rat basophilic leukemia (RBL) cells, stably transfected (ETFR cells); gift of H. Ali and R. Snyderman, Duke University
T1 sequence (P21462 1-350): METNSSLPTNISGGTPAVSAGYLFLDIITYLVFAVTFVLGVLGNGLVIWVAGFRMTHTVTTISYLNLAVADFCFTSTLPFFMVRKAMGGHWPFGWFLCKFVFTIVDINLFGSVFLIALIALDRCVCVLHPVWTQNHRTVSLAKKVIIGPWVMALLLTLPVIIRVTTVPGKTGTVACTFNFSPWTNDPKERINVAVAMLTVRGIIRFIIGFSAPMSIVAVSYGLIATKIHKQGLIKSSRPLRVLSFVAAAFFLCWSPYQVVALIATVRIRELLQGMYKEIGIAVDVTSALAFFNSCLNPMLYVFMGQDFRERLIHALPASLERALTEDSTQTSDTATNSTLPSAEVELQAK
Description: Chemotaxis assay, RBL cells transfected with FPR (ETFR cells). It counts as cell-based. The settings on record: for inhibition of ETFR cell chemotaxis to CaG: CaG 10 μg/ml; for inhibition of ETFR cell chemotaxis to fMLF: fMLF 100 nM. As for the experimental part: (§1) Human PBMC were isolated from leukopacks obtained through the courtesy of Transfusion Medicine Department, National Institutes of Health Clinical Center (Bethesda, Md.) by Ficoll-Hypaque density gradient centrifugation. Monocytes were purified from human PBMC by Percoll gradient to yield>90% pure preparations. […] H. Ali and R. Snyderman, Duke University (Durham, N.C.) and maintained in the presence of 0.8 mg/ml geneticin (G418, Life Technologies, Rockville, Md.) in DMEM supplemented with 10% FCS. B. Chemotaxis assay Migration of phagocytes and ETFR cells was assessed using a 48-well microchemotaxis chamber (Neuroprobe, Cabin John, Md.) as previously described (Hu et al. (2001) J Leukoc Biol 70 15512). Briefly, different concentrations of stimulants were placed in the wells of the lower compartment of the chamber, and 50 μl cells (1.5×10^6 cells/ml for monocyte and neutrophil, 1×10^6 ETFR cells/ml) were added to the wells of the upper compartment. The lower and upper compartments were separated by either a 5-μm (for monocyte) or a 10-μm pore size, collagen-coated (for ETFR cells) polycarbonate filter (Osmonics, Livermore, Calif.). After incubation at 37° C. in humidified air with 5% CO2 (60 min for neutrophils, 90 min for monocytes, 4.5 h for ETFR cells), the filter was removed and stained, and the cells migrating across the filter were counted with light microscopy. The results are presented as the mean number of cells (±SD) in three high power fields (HPFs). For analysis of cross-desensitization, cells were pretreated with indicated reagents for 1 h at 37° C. After thorough washing with cold medium (RPMI 1640, 1% BSA), the cells were resuspended and assayed. To measure the effect of various signaling inhibitors, unless otherwise indicated, the cells were pre-incubated at 37° C. for 60 min with the inhibitors, and were then added to the upper wells of the chemotaxis chamber.

Another assay relates to monocytes. Put plainly: Chemotaxis assay, monocytes. It counts as cell-based, human. As for the experimental part: as §1, with “For analysis of cross-desensitization, cells were pretreated with indicated reagents for 1 h at 37° C.” left out
The subject of the next assay is PKCζ. Put plainly: PKCζ translocation in ETFR cells (confocal microscopy). It counts as cell-based, rat. Conditions: 100 nM fMLF, 10 μg/ml CaG or PMA 500 nM, 37° C. 10 min. As to the method:
(§2) ETFR cells were seeded on coverslips and cultured overnight in DMEM containing 1% FCS at 37° C. After further culture in FCS-free DMEM for 3 h, cells were treated with stimulants for indicated time periods at 37° C. and were then fixed in 4% paraformaldehyde for 5 min at room temperature. The cells were permeabilized with 0.2% Tween 20 for 30 min at 4° C. and the reaction was blocked with 5% goat normal serum for 15 min at room temperature. The rabbit anti-PKCα/β, δ, and ξ, antibodies (1:1000 in DPBS) were applied separately for 1 h at room temperature. After three rinses with DPBS, the cells were stained with FITC-labeled goat anti-rabbit secondary antibody (PharMingen, 1:1000 in DPBS) for 1 h at room temperature. The coverslips were mounted with an anti-fade, water-based mounting medium with Propidium Iodide (PI) (Vector Lab, Burlingamem, Calif.) and analyzed under a laser scanning confocal fluorescence microscope (Zeiss LSM510 NLO Meta, Jena, Germany). Excitation wavelengths 488 (for FITC) and 568 (for PI) nm were used to generate fluorescence emission in green and red, respectively.

The next assay deals with PKCα/β. Description: PKCα/β translocation in ETFR cells. It counts as cell-based, rat. The settings on record: 100 nM fMLF, 10 μg/ml CaG or PMA 500 nM, 37° C. 10 min. As for the experimental part: as §2
In another assay the test system is PKCδ. Description: PKCδ translocation in ETFR cells. It counts as cell-based, rat. The settings on record: 100 nM fMLF, 10 μg/ml CaG or PMA 500 nM, 37° C. 10 min. As for the experimental part: as §2, with “The cells were permeabilized with 0.2% Tween 20 for 30 min at 4° C. and the reaction was blocked with 5% goat normal serum for 15 min at room temperature.” left out, “Germany).” for “Germany). Excitation wavelengths 488 (for FITC) and 568 (for PI) nm were used to generate fluorescence emission in green and red, respectively.”

The test system of a further assay is PKC isozymes. Description: PKC translocation in parental RBL cells. It counts as cell-based, rat. Conditions: 100 nM fMLF, 10 μg/ml CaG or PMA 500 nM, 37° C. 10 min.
In the next assay the test system is neutrophils. Description: Chemotaxis assay, neutrophils. It counts as cell-based, human. Conditions: human neutrophils. As to the method:
as §1

Assay [2] addresses T1, FPR. Put plainly: Chemotactic activity for ETFR cells after α1-ACT treatment of stimulants and supernatants. It counts as cell-based. Conditions: α1-ACT 0.75 μM. As for the experimental part: ETFR and RBL cells (10×10^6/ml) were incubated with medium or 10 μg/ml CaG at 37° C. for 1 h. Supernatants were collected and measured for chemotactic activity for un-treated ETFR cells.
as §1
Cleavage by proteases is required for regulation of the function of a number of molecules in triggering proper physiological processes. […] Therefore, we examined whether interaction of FPR with CaG might cleave FPR to generate a new defacto agonist for this receptor, such as in the model of thrombin activation of its receptors. ETFR cells were cultured with CaG under the conditions that are sufficient for cleavage of other proteins by CaG (Kinlough-Rathbone et al. (1999) Thromb Res 95, 31524). The supernatant was collected and examined for its chemotactic activity for FPR. […]

Take `CN[C@@H]1C[C@H]2O[C@@](C)([C@@H]1OC)n1c3ccccc3c3c4c(c5c6ccccc6n2c5c31)C(=O)NC4` [Staurosporine, reference compound]: on FPR [1], the “inhibition of ETFR cell chemotaxis to CaG” value was “abrogated chemotaxis of ETFR cells induced by either CaG or fMLF” and the “inhibition of ETFR cell chemotaxis to fMLF” value is “abrogated chemotaxis of ETFR cells induced by either CaG or fMLF”.
Take `C/C=C/C[C@@H](C)[C@@H](O)[C@H]1C(=O)N[C@@H](CC)C(=O)N(C)CC(=O)N(C)[C@@H](CC(C)C)C(=O)N[C@@H](C(C)C)C(=O)N(C)[C@@H](CC(C)C)C(=O)N[C@@H](C)C(=O)N[C@H](C)C(=O)N(C)[C@@H](CC(C)C)C(=O)N(C)[C@@H](CC(C)C)C(=O)N(C)[C@H](C(C)C)C(=O)N1C` [CsH, Cyclosporin H, reference compound]: the “inhibition of monocyte chemotaxis to CaG” value in the assay on monocytes (CaG 10 μg/ml) is “abolished monocyte chemotaxis to CaG and fMLF”. In addition, the “inhibition of monocyte chemotaxis to fMLF” value in the assay with monocytes (fMLF 10 nM) was “abolished monocyte chemotaxis to CaG and fMLF”.
For the molecule `CCCCCCCCCCCCCC(=O)O[C@@H]1[C@@H](C)[C@@]2(O)[C@@H](C=C(CO)C[C@]3(O)C(=O)C(C)=C[C@@H]23)[C@@H]2C(C)(C)[C@]12OC(C)=O` [PMA], the “translocation of PKCζ” value in the assay on PKCζ was “activated these PKC isozymes in both ETFR and RBL cells; also recorded: induced translocation of PKCζ, PKCα/β, and PKCδ in ETFR and RBL cells”. In the assay with PKCα/β, the “translocation of PKCα/β” value was “activated these PKC isozymes in both ETFR and RBL cells; also recorded: induced translocation of PKCζ, PKCα/β, and PKCδ in ETFR and RBL cells”. The “translocation of PKCδ” value in the assay with PKCδ was “induced translocation of PKCζ, PKCα/β, and PKCδ in ETFR and RBL cells”. Also, in the assay on PKC isozymes, the “PKC translocation in parental RBL cells” value is “activated these PKC isozymes in both ETFR and RBL cells; also recorded: induced translocation of PKCζ, PKCα/β, and PKCδ in ETFR and RBL cells”.
With `CN(C)CCCn1cc(C2=C(c3c[nH]c4ccccc34)C(=O)NC2=O)c2ccccc21` [Gö 6850, bisindolylmaleimide I], on FPR [1], the “inhibition of ETFR cell chemotaxis to CaG” value was “limited effect on fMLF- and CaG-induced ETFR cell migration”; the “inhibition of ETFR cell chemotaxis to fMLF” value was “limited effect on fMLF- and CaG-induced ETFR cell migration”. In the assay on neutrophils, the “inhibition of neutrophil chemotaxis to CaG” value is “did not have any effect”, the “inhibition of neutrophil chemotaxis to IL-8” value is “did not have any effect” and the “inhibition of neutrophil chemotaxis to fMLF” value was “did not have any effect”.

B1: α1-ACT: α1-antichymotrypsin, CaG inhibitor (protein, UniProt P01011 24-423, looked up)
Alpha-1-antichymotrypsin: HPNSPLDEENLTQENQDRGTHVDLGLASANVDFAFSLYKQLVLKAPDKNVIFSPLSISTALAFLSLGAHNTTLTEILKGLKFNLTETSEAEIHQSFQHLLRTLNQSSDELQLSMGNAMFVKEQLSLLDRFTEDAKRLYGSEAFATDFQDSAAAKKLINDYVKNGTRGKITDLIKDLDSQTMMVLVNYIFFKAKWEMPFDPQDTHQSRFYLSKKKWVMVPMMSLHHLTIPYFRDEELSCTVVELKYTGNASALFILPDQDKMEEVEAMLLPETLKRWRDSLEFREIGELYLPKFSISRDYNLNDILLQLGIEEAFTSKADLSGITGARNLAVSQVVHKAVLDVFEEGTEASAATAVKITLLSALVETRTIVRFNRPFLMIIVPTDTQNIFFMSKVTNPKQA
Consider B1, for which, in the assay with FPR [2] (15 min room temperature), the “effect on chemotactic activity of supernatant from CaG-digested ETFR cells” value is “completely abolished” and the “effect on chemotactic activity of supernatants from CaG-treated RBL cells” value is on record as “inhibited by α1-ACT”. Moreover, the “effect on chemotactic activity of CaG” value with FPR [2] (CaG 10 μg/ml) was “significantly reduced chemotactic activity”. Also, the “effect on chemotactic activity of fMLF” value in the assay with FPR [2] (fMLF 100 nM) was “did not affect the chemotactic activity of fMLF for FPR”.
